The results in this text go back to ChEMBL document CHEMBL1129007, “The design and synthesis of novel adenosine agonists” (Bioorg Med Chem Lett, 1996).

Each structure is given as a SMILES string.

The EC50 is the concentration that produces a half-maximal response. Read a low EC50 as an effect from little substance.

One assay concerns the target T1, Adenosine receptor A1 (Homo sapiens, UniProt P30542).
T1 sequence (P30542 whole entry): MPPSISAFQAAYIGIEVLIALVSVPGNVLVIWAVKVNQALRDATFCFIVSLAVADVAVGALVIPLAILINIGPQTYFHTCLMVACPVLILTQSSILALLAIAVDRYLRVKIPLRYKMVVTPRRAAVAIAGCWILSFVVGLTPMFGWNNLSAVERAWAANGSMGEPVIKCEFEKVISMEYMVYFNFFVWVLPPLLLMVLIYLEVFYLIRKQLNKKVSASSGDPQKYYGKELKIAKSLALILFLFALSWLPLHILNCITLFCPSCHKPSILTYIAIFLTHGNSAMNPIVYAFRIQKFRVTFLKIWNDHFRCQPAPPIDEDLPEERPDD
Briefly: Compound was evaluated for the Adenosine A1 receptor agonist potency. Type of assay: functional, Cricetulus griseus.

Assay [1] is described as follows: Compound was evaluated for the maximal inhibition of (-)-isoproterenol stimulated cAMP accumulation in DDT-1 MF-2 cells. Type of assay: functional, Cricetulus griseus. For orientation: Cyclic AMP is a second messenger, typically raised through Gs and lowered through Gi signalling.

For the compound `OC[C@H]1O[C@@H](n2cnc3c(N[C@@H]4CC5CC4C4OC54)ncnc32)[C@H](O)[C@@H]1O` (stereo not given in full), the midpoint of the response at Adenosine receptor A1, the EC50, lay at 10 nM. This compound displayed a Max inhibition in assay [1] of 82%.

For `OC[C@H]1O[C@@H](n2cnc3c(N[C@H]4CC5CC4C4OC54)ncnc32)[C@H](O)[C@@H]1O` (stereo not given in full), the EC50 at Adenosine receptor A1 worked out at 0.81 nM. In addition, the Max inhibition in assay [1] amounted to 81%. The compound `OC[C@H]1O[C@@H](n2cnc3c(NC4CCCC4)ncnc32)[C@H](O)[C@@H]1O` [N6-CYCLOPENTYLADENOSINE] had a Max inhibition in assay [1] of 80%.
